Data set [1] concerns human BxPC-3 pancreatic cancer cells. The data set is described as follows: In vitro PDT of hypoxic cells, MTT cell viability. The following applies: PDT treatment alone (RB 1 μM + 532 nm LED 30 sec). It is filed as cell-based. The protocol:
Having determined the ability of the CaO2 NPs to improve the light induced ROS generation of Rose Bengal in a simulated hypoxic environment, the next step was to determine if this improved ROS generation would also result in increased Rose Bengal mediated PDT killing of human BxPC-3 pancreatic cancer cells.
BxPc3 cells were seeded in a 96 well plate at a density of 5×10^4 cells per well. The cells were cultured in an anaerobic cabinet (O2/CO2/N2, 0.1:5:94.9 v/v/v) for 3 hours to generate a hypoxic environment and then spiked with RB (1 μM) and incubated for a further 3 hours under anaerobic conditions. This concentration of RB is much lower than normally used in PDT cell-based studies (˜5 μM) and was chosen to enable a moderate PDT effect in the absence of CaO2 NPs so that any beneficial effect provided by the NPs could be determined (Chan et al., Tissue engineering, 13(1): 73-85, 2007). The cells were then incubated with an ethanol: PBS (50:50) solution of the NPs (50 μM) for 5 min before being exposed to light from a 532 nm emitting LED for 30 sec. The NP solution was then removed, the cells washed with fresh PBS and incubated in fresh media under normoxic conditions for a further 21 hours before cell viability was determined using a MTT assay. […]

The test system of data set [2] is Mia-PaCa 2 xenograft tumours. As to the kind of experiment: PDT efficacy in vivo, tumour volume. Also on record: species or system SCID mice. The settings on record: PDT alone (intratumoural Rose Bengal 100 μL, 0.1 mg/mL + white light 3 min); 5 days after treatment. On the procedure: All animals employed in this study were treated humanely and in accordance with licenced procedures under the UK Animals (Scientific Procedures) Act 1986. Mia-PaCa 2 xenograft tumours were established as described above. Once the tumours had reached an average volume of 254±17 mm^3 the mice were randomly separated into 4 groups (n=5). Group 1 involved untreated animals, group 2 the PDT only group, Group 3 the 1-CaO2 NPs only group and group 4 the PDT+1-CaO2 NPs group. For group 2, mice received an intratumoural injection (100 μL) of Rose Bengal (0.1 mg/mL) in a PBS solvent and the tumour was then exposed to a LED emitting white light for 3 min (0.05 J/cm^2). Group 3 received a tail vein injection (100 μL) of 1-CaO2 NPs in a PBS vehicle (2 mg/mL) while group 4 also received a tail vein injection (100 μL) of 1-CaO2 NPs in a PBS vehicle (2 mg/mL) in addition to an intratumoural injection (100 μL) of Rose Bengal (0.1 mg/mL) and light exposure as described for group 2. The tumour volume was measured daily over the course of 6 days using callipers.

SMILES strings stand for the structures.

Turning to `O=C([O-])c1c(Cl)c(Cl)c(Cl)c(Cl)c1-c1c2cc(I)c(=O)c(I)c-2oc2c(I)c([O-])c(I)cc12.[Na+].[Na+]` [Rose Bengal], the reduction in viability in data set [1] is given as 10.8%. In data set [2], the “difference in tumour volume relative to untreated control animals” value is “no significant difference”.

Source of the values: patent US11235000B2, “Calcium peroxides nanoparticles as adjuvant therapy” (UNIVERSITY OF ULSTER, priority 2017, dated 2022).
